Laboratory results: EP1143976B9, “BETA-D-2', 3' -DIDEHYDRO-2', 3' -DIDEOXY-5-FLUOROCYTIDINE FOR USE IN THE TREATMENT OF HIV INFECTIONS” (priority 1999, dated 2000)
“And” between values parts separate entries of the source, which are not always exact repeats. Equal entries are not always repeated. Where two headings read alike, the source gives them in different places.

Key:
[1] = test system: HIV-1 in acutely infected human PBM cells; assay: Median effect and combination index analysis in acutely infected human PBM cells (Day 6); type: cell-based; conditions: Human immunodeficiency virus 1, PBMC, 144 h
From the text: (§1) Table 5 provides the median effective concentration and combinations index (C.I.) values for D-D4FC alone and in combination with AZT and D4T in acutely infected human PBM cells (Day6). Table 6 describes the effect of β-D and β-L-D4FC against HIV-1 and cloned viruses I human PBM cells.

[2] = test system: G2-2PITT (103N,41L,184V,210W,others); assay: Effect against cloned viruses, in MT-2 cells; type: cell-based, HIV-1; conditions: for FI50: In MT-2 cells, EC50 relative to HIV-1LAV or xxBRUPITT
HIV-1p37 D-Fd4C#1 = assay: Antiviral susceptibility assay (p24 antigen) in MT-2 cells, D-D4FC selected virus, selection #1 passage 37; type: cell-based; conditions: V90I, R172K
Procedure: (§2) Selection of resistant virus. Prior to starting the selection of D-D4FC resistant virus, the starting virus (HIV -1LAI) was passaged as cell-free virus for 10 cycles in MT-2 cells in the absence of drug. D-D4FC resistant virus was selected by serially passaging HIV-1LAI in MT-2 cells in the presence of gradually increasing concentrations of D-D4FC. The selection for D-D4FC resistant virus was conducted twice. Selection was initiated by inoculating 1 x 10^6 MT-2 cells with […] of virus. At peak viral cytopathic effect (4-7 days post infection), supernatant from the infected cultures was collected and 0.1-0.3 ml were subsequently used to initiate another cycle of infection. Supernatant was also aliquoted and stored at -80°C for characterization of selected virus. Virus was passaged at least three times at each concentration, the number of cycles at any given concentration of drug being dependent on the ability of virus to grow at the particular concentration of D-D4FC. During the first selection procedure, virus was passaged once in the absence of drug prior to increasing the drug concentration (Table 2). As a control, virus was also passaged in parallel in the absence of drug. […]
Antiviral susceptibility assays. Virus susceptibility to D-D4FC was measured by measuring percent inhibition of p24 antigen production. […]

HIV-1p20 D-Fd4C#2 = assay: Antiviral susceptibility assay (p24 antigen) in MT-2 cells, D-D4FC selected virus, selection #2 passage 20; type: cell-based; conditions: mutations K65R, V179D; for EC50: p24 antigen, selection #2 passage 20
Procedure: as §2
(§3) Antiviral susceptibility assays. Virus susceptibility to D-D4FC was measured by measuring percent inhibition of p24 antigen production. Briefly, MT-2 cells (1 x 10^5 cells/ml) were infected with virus at a moi of 0.01 in the presence of serial D-D4FC dilutions. Each dilution was tested in triplicate. Culture supernatants were harvested day 7 post infection and assayed for p24 antigen production using a commercial assay (DuPont, NEN Products, Wilmington, Del.).

xxV90I = assay: D-D4FC susceptibility of recombinant HIV-1 in MT-2 cells; type: cell-based
Procedure: as §3
(§4) Production of mutant recombinant HIV-1. Mutant RT was generated using the Altered SitesII in vitro Mutagenesis System (Promega, Madison, WI). Mutagenesis was carried out on HIV-1LAI, RT cloned into a mutagenesis vector (PALTER, Promega). The presence of the desired mutation was determined by direct sequencing of the RT gene. The mutant RT was subsequently ligated into the pxxHIV-1 LAI vector. Stocks of mutant virus were then prepared by electrophorating 5-10 µg of DNA into 1.3 x 10^7 MT-2 cells as described above.

xxV901/R172K = assay: as above; type: cell-based
Procedure: as §3, §4

xxK70N = assay: as above; type: cell-based
Procedure: as §3, §4

xxK70N//R172K = assay: as above; type: cell-based
Procedure: as §3, §4

xxK65R = assay: as above; type: cell-based
Procedure: as §3, §4

xxR172K = assay: as above; type: cell-based
Procedure: as §3, §4

[3] = test system: 4xM184VPITT (184V,67N,70R,215Y,219Q); assay: Effect against cloned viruses, in MT-2 cells; type: cell-based, HIV-1; conditions: for FI50: In MT-2 cells, EC50 relative to HIV-1LAV or xxBRUPITT
HIV-1LAI = assay: Antiviral susceptibility assay (inhibition of p24 antigen production) in MT-2 cells, starting virus; type: cell-based; conditions: Human immunodeficiency virus 1, MT2, 168 h, day 7 post infection, HIV-1LAI P0, wild type baseline
Procedure: Cells. MT-2 cells (AIDS Research and Reference Reagent Program, National Institute of Allergy and Infectious Diseases, National Institutes of Health, contributed by D. Richman) were cultured in RPMI 1640 (Whittaker M.A., Bioproducts, Walkersville, MD) supplemented with 10% fetal bovine serum, 10 mM HEPES buffer, penicillin (50 IU/ml) and streptomycin (50 µg/ml).
Viruses. HIV-1LAI, a molecularly cloned clinical isolate, was used both as the starting virus for the resistance selection as well as for the generation of recombinant mutants. Stock preparations of HIV-1LAI, were prepared by electrophorating 5-10 jig of proviral plasmid DNA into 1.3 x 10^7 MT-2 cells. At peak viral cytopathic effect (generally 7 days post transfection), the supernatant from infected cultures was collected, aliquoted and stored at -80°C until use. Virus preparations were titered by threefold endpoint dilution in MT-2 cells, and the TCID50 was calculated with the Reed and Muench equation.
Antiviral susceptibility assays. Virus susceptibility to D-D4FC was measured by measuring percent inhibition of p24 antigen production. Briefly, MT-2 cells (1 x 10^5 cells/ml) were infected with virus at a moi of 0.01 in the presence of serial D-D4FC dilutions. Each dilution was tested in triplicate. […]

[4] = test system: 4X AZTPITT (67N,70R,215Y,219Q); assay: Effect against HIV-1 and cloned viruses in human PBM cells; type: cell-based; conditions: for EC50 / EC90: human PBM cells
From the text: as §1

T215YPITT = assay: as above; type: cell-based; conditions: for FI50: EC50 relative to HIV-1LAV or xxBRUPITT; for FI90: EC90 relative to HIV-1LAV or xxBRUPITT
From the text: as §1

HIV-1LAV = assay: as above; type: cell-based; conditions: Human immunodeficiency virus 1, PBMC
From the text: as §1

xxBRUPITT = assay: as above; type: cell-based; conditions: Human immunodeficiency virus 1, PBMC
From the text: as §1

M184VPITT = assay: as above; type: cell-based; conditions: for FI50: EC50 resistant virus relative to HIV-1LAV or xxBRUPITT; for FI90: EC90 resistant virus relative to HIV-1LAV or xxBRUPITT
From the text: as §1

215/41PITT = assay: as above; type: cell-based; conditions: for FI50: EC50 relative to HIV-1LAV or xxBRUPITT
From the text: as §1

M184V/T215YPITT = assay: as above; type: cell-based; conditions: for FI50: EC50 relative to HIV-1LAV or xxBRUPITT; for FI90: EC90 relative to HIV-1LAV or xxBRUPITT
From the text: as §1

L-D4FC-res.(25 µM) = assay: as above; type: cell-based
From the text: as §1

[5] = acutely infected human PBM cells, Day 6
[6] = median effective concentration, acutely infected human PBM cells, Day 6, read-out: EC50
[7] = Human immunodeficiency virus 1, MT2, In MT-2 cells (courtesy of Dr. J. Mellors)
[8] = EC90 relative to HIV-1LAV or xxBRUPITT
[9] = Human immunodeficiency virus 1, PBMC
[10] = Human immunodeficiency virus 1, PBMC, human PBM cells
[11] = In MT-2 cells (courtesy of Dr. J. Mellors)
[12] = human PBM cells, L-D4FC-res.(25 µM) virus

Cc1cn([C@H]2C[C@H](N=[N+]=[N-])[C@@H](CO)O2)c(=O)[nH]c1=O [AZT, 3'-azido-3'-deoxythymidine] was tested, and the EC50 [1] was 3.3 nM.
With Cc1cn([C@H]2C=C[C@@H](CO)O2)c(=O)[nH]c1=O [D4T, 2',3'-dideoxy-2',3'-didehydrothymidine] the EC90 [1, 5] was 220 nM and the EC50 [1, 6] was 15 nM.
Nc1nc(=O)n([C@H]2C=C[C@@H](CO)O2)cc1F [D-D4FC, β-2',3'-didehydro-2',3'-dideoxy-5-fluorocytidine] showed an EC90 [1, 5] of 78 nM, an EC50 [1, 6] of 7.6 nM and an EC50 [2, 7] of 40 nM. The FI50 ([2]; listed as β-D-D4FC) was 0.2, the EC50 (HIV-1p37 D-Fd4C#1; Human immunodeficiency virus 1, MT2, p24 antigen, selection #1 passage 37, mutations K70N) was 4070 nM and the “Fold Resistance” value (HIV-1p37 D-Fd4C#1; versus wild type HIV-1LAI, mutations K70N, 10080 min) was 19.3 and 19.4. For the same molecule, the EC50 (HIV-1p20 D-Fd4C#2; Human immunodeficiency virus 1, MT2, MT-2 cells) was 1100 nM, the EC50 (HIV-1p20 D-Fd4C#2; MT-2 cells) was 1110 nM and the “Fold Resistance” value (HIV-1p20 D-Fd4C#2; MT-2 cells, versus wild type HIV-1LAI, 10080 min) was 5.3. For the same molecule, the EC50 (xxV90I; Human immunodeficiency virus 1, MT2, recombinant xxV90I) was 250 nM, the “Fold Resistance” value (xxV90I; xxV90I versus xxLAI, 10080 min) was 1.5 and the EC50 (xxV901/R172K; Human immunodeficiency virus 1, MT2, recombinant xxV901/R172K) was 360 nM. The “Fold Resistance” value (xxV901/R172K; xxV901/R172K versus xxLAI, 10080 min) was 1.3, the EC50 (xxK70N; Human immunodeficiency virus 1, MT2, recombinant xxK70N) was 240 nM and the “Fold Resistance” value (xxK70N; xxK70N versus xxLAI, 10080 min) was 1.4. For the same molecule, the EC50 (xxK70N//R172K; Human immunodeficiency virus 1, MT2) was 56 nM, the “Fold Resistance” value (xxK70N//R172K; MT-2 cells, xxK70N/V901/R172K versus xxLAI, 10080 min) was 0.4 and the EC50 (xxK65R; Human immunodeficiency virus 1, MT2, recombinant xxK65R) was 1240 nM. For the same molecule, the “Fold Resistance” value (xxK65R; xxK65R versus xxLAI, 10080 min) was 3.9, the EC50 (xxR172K; Human immunodeficiency virus 1, MT2, recombinant xxR172K) was 230 nM and the “Fold Resistance” value (xxR172K; xxR172K versus xxLAI, 10080 min) was 0.8. The EC50 [3, 7] was 45 nM, the FI50 ([3]; listed as β-D-D4FC) was 0.2 and the EC50 (HIV-1LAI) was 210 nM. It also gave an FI50 ([4]; EC50 relative to HIV-1LAV or xxBRUPITT) of 1, an FI90 [4, 8] of 1 and an EC50 [4, 9] of 72 nM. For the same molecule, the EC90 [4, 9] was 460 nM, the FI50 (T215YPITT; listed as β-D-D4FC) was 1 and the FI90 (T215YPITT; listed as β-D-D4FC) was 1. It also gave an EC50 (T215YPITT; [10]) of 67 nM, an EC90 (T215YPITT; [10]) of 350 nM and an EC50 (HIV-1LAV) of 220 nM. The EC90 (HIV-1LAV) was 1320 nM, the EC50 (xxBRUPITT) was 65 nM and the FI50 (M184VPITT; listed as β-D-D4FC) was 2. The FI90 (M184VPITT; listed as β-D-D4FC) was 2, the EC50 (M184VPITT; [10]) was 140 nM and the EC90 (M184VPITT; [10]) was 1040 nM. For the same molecule, the FI50 (215/41PITT; listed as β-D-D4FC) was 2, the FI90 (215/41PITT; [8]) was 1 and the EC50 (215/41PITT; [10]) was 130 nM. It also gave an EC90 (215/41PITT; [10]) of 490 nM, an FI50 (M184V/T215YPITT; listed as β-D-D4FC) of 1 and an FI90 (M184V/T215YPITT; listed as β-D-D4FC) of 1. For the same molecule, the EC50 (M184V/T215YPITT; [10]) was 57 nM and the EC90 (M184V/T215YPITT; [10]) was 470 nM.
Molecule Nc1nc(=O)n([C@H]2C=C[C@@H](CO)O2)cc1F [β-L-D4FC, β-2',3'-didehydro-2',3'-dideoxy-5-fluorocytidine, reference compound] has an EC50 [2, 11] of over 3300 nM, an FI50 [2] of over 47 and an EC50 [3, 11] of over 3300 nM. The FI50 [3] was over 47, the EC50 [4] was 16 nM and the EC90 [4] was 110 nM. For the same molecule, the FI50 (T215YPITT) was 0.2, the FI90 (T215YPITT) was 0.3 and the FI50 (L-D4FC-res.(25 µM); EC50 relative to HIV-1LAV or xxBRUPITT, L-D4FC-res.(25 µM)) was 222. The FI90 (L-D4FC-res.(25 µM); EC90 relative to HIV-1LAV or xxBRUPITT, L-D4FC-res.(25 µM)) was 208, the EC50 (L-D4FC-res.(25 µM); [12]) was 7560 nM and the EC90 (L-D4FC-res.(25 µM); [12]) was 33300 nM. It also gave an FI50 (M184VPITT) of 146, an FI90 (M184VPITT) of 163 and an FI50 (215/41PITT) of 1. For the same molecule, the FI50 (M184V/T215YPITT) was 332 and the FI90 (M184V/T215YPITT) was 848.
